From ChEMBL document CHEMBL1201862, “PubChem BioAssay data set” (2004)
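Compound exposure: 48 hours, 5 concentrations, 96-well plates. GI50 is the concentration that inhibits growth by half.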 Activity calls are given as the source filed them. Cut-off read from the data, not from the text of the source: active = GI50 up to about 1.1 µM and inactive = higher.

Columns and labels:
Test in all cases: growth of human tumour cells (NCI), 48 h
786-0 = tested on: 786-0
A498 = tested on: A498
A549 = tested on: A549
ACHN = tested on: ACHN
BT-549 = tested on: BT-549
CAKI-1 = tested on: CAKI-1
CCRF-CEM = tested on: CCRF-CEM
COLO 205 = tested on: COLO 205
DU-145 = tested on: DU-145
EKVX = tested on: EKVX
HCC 2998 = tested on: HCC 2998
HCT-116 = tested on: HCT-116
HCT-15 = tested on: HCT-15
HL-60 = tested on: HL-60
HOP-62 = tested on: HOP-62
HOP-92 = tested on: HOP-92
HT-29 = tested on: HT-29
Hs-578T = tested on: Hs-578T
IGROV-1 = tested on: IGROV-1
K562 = tested on: K562
KM12 = tested on: KM12
LOX IMVI = tested on: LOX IMVI
M14 = tested on: M14
MCF7 = tested on: MCF7
MDA-MB-231 = tested on: MDA-MB-231
MDA-MB-435 = tested on: MDA-MB-435
MDA-N = tested on: MDA-N
MOLT-4 = tested on: MOLT-4
Malme-3M = tested on: Malme-3M
NCI-H226 = tested on: NCI-H226
NCI-H23 = tested on: NCI-H23
NCI-H460 = tested on: NCI-H460
NCI-H522 = tested on: NCI-H522
NCI/ADR-RES = tested on: NCI/ADR-RES
OVCAR-3 = tested on: OVCAR-3
OVCAR-4 = tested on: OVCAR-4
OVCAR-5 = tested on: OVCAR-5
OVCAR-8 = tested on: OVCAR-8
PC-3 = tested on: PC-3
RPMI-8226 = tested on: RPMI-8226
RXF 393 = tested on: RXF 393
SF-268 = tested on: SF-268
SF-295 = tested on: SF-295
SF-539 = tested on: SF-539
SK-MEL-28 = tested on: SK-MEL-28
SK-MEL-2 = tested on: SK-MEL-2
SK-MEL-5 = tested on: SK-MEL-5
SK-OV-3 = tested on: SK-OV-3
SN12C = tested on: SN12C
SNB-19 = tested on: SNB-19
SNB-75 = tested on: SNB-75
SR = tested on: SR
SW-620 = tested on: SW-620
T47D = tested on: T47D
TK-10 = tested on: TK-10
U-251 = tested on: U-251
UACC-257 = tested on: UACC-257
UACC-62 = tested on: UACC-62
UO-31 = tested on: UO-31

Cc1ccc(NC(Nc2ccc(C)cc2C)=C(/C=C(\Cl)[N+](=O)[O-])[N+](=O)[O-])c(C)c1
GI50 (786-0): 2.81 µM (inactive)
GI50 (A498): 18.2 µM (inactive)
GI50 (A549): 17.3 µM (inactive)
GI50 (ACHN): 2.97 µM (inactive)
GI50 (BT-549): 3.46 µM (inactive)
GI50 (CAKI-1): 2.08 µM (inactive)
GI50 (CCRF-CEM): 0.301 µM (active)
GI50 (COLO 205): 2.18 µM (inactive)
GI50 (DU-145): 18.5 µM (inactive)
GI50 (EKVX): 15.2 µM (inactive)
GI50 (HCC 2998): 23.3 µM (inactive)
GI50 (HCT-116): 1.7 µM (inactive)
GI50 (HCT-15): 2920 nM
GI50 (HL-60): 0.592 µM (active)
GI50 (HOP-62): 17.7 µM (inactive)
GI50 (HOP-92): 1.45 µM (inactive)
GI50 (HT-29): 5.43 µM (inactive)
GI50 (Hs-578T): 6.71 µM (inactive)
GI50 (IGROV-1): 6.04 µM (inactive)
GI50 (K562): 1.46 µM (inactive)
GI50 (KM12): 10.4 µM (inactive)
GI50 (LOX IMVI): 1.64 µM (inactive)
GI50 (M14): 2.21 µM (inactive)
GI50 (MCF7): 2.83 µM (inactive)
GI50 (MDA-MB-231): 4.94 µM (inactive)
GI50 (MDA-MB-435): 2.87 µM (inactive)
GI50 (MDA-N): 3.37 µM (inactive)
GI50 (MOLT-4): 1.53 µM (inactive)
GI50 (Malme-3M): 3.09 µM (inactive)
GI50 (NCI-H226): 7 µM (inactive)
GI50 (NCI-H23): 5.94 µM (inactive)
GI50 (NCI-H460): 16.6 µM (inactive)
GI50 (NCI-H522): 2.37 µM (inactive)
GI50 (NCI/ADR-RES): 17.1 µM (inactive)
GI50 (OVCAR-3): 2.72 µM (inactive)
GI50 (OVCAR-4): 3.69 µM (inactive)
GI50 (OVCAR-5): 4.36 µM (inactive)
GI50 (OVCAR-8): 2.81 µM (inactive)
GI50 (PC-3): 7.03 µM (inactive)
GI50 (RPMI-8226): 1.55 µM (inactive)
GI50 (RXF 393): 1.72 µM (inactive)
GI50 (SF-268): 4.82 µM (inactive)
GI50 (SF-295): 16.6 µM (inactive)
GI50 (SF-539): 8.85 µM (inactive)
GI50 (SK-MEL-28): 2.34 µM (inactive)
GI50 (SK-MEL-2): 4.23 µM (inactive)
GI50 (SK-MEL-5): 5.9 µM (inactive)
GI50 (SK-OV-3): 5.18 µM (inactive)
GI50 (SN12C): 4.53 µM (inactive)
GI50 (SNB-19): 12.9 µM (inactive)
GI50 (SNB-75): 1.11 µM (active)
GI50 (SR): 1.28 µM (inactive)
GI50 (SW-620): 1.91 µM (inactive)
GI50 (T47D): 1.72 µM (inactive)
GI50 (TK-10): 4.37 µM (inactive)
GI50 (U-251): 11.5 µM (inactive)
GI50 (UACC-257): 4.81 µM (inactive)
GI50 (UACC-62): 3.3 µM (inactive)
GI50 (UO-31): 5.9 µM (inactive)

O=C(Nc1ccc2[nH]c(C(=O)N3CC(CCl)c4c3cc([N+](=O)[O-])c3ccccc43)cc2c1)c1cc2ccccc2o1 (configuration not stated)
GI50 (786-0): > 100 µM (inactive)
GI50 (A498): > 57.7 µM (inactive)
GI50 (A549): > 100 µM (inactive)
GI50 (ACHN): 44.8 µM (inactive)
GI50 (BT-549): 38.2 µM (inactive)
GI50 (CAKI-1): > 100 µM (inactive)
GI50 (CCRF-CEM): 46.1 µM (inactive)
GI50 (COLO 205): > 58.1 µM (inactive)
GI50 (DU-145): > 51.6 µM (inactive)
GI50 (EKVX): > 100 µM (inactive)
GI50 (HCC 2998): > 46.9 µM (inactive)
GI50 (HCT-116): > 100 µM (inactive)
GI50 (HCT-15): > 63400 nM
GI50 (HL-60): 22.1 µM (inactive)
GI50 (HOP-62): > 100 µM (inactive)
GI50 (HOP-92): > 58.5 µM (inactive)
GI50 (HT-29): > 100 µM (inactive)
GI50 (Hs-578T): > 100 µM (inactive)
GI50 (IGROV-1): > 51.6 µM (inactive)
GI50 (K562): > 100 µM (inactive)
GI50 (KM12): > 100 µM (inactive)
GI50 (LOX IMVI): > 51.2 µM (inactive)
GI50 (M14): > 100 µM (inactive)
GI50 (MCF7): 23 µM (inactive)
GI50 (MDA-MB-231): > 63 µM (inactive)
GI50 (MDA-MB-435): > 100 µM (inactive)
GI50 (MDA-N): > 100 µM (inactive)
GI50 (Malme-3M): > 100 µM (inactive)
GI50 (NCI-H226): 48.9 µM (inactive)
GI50 (NCI-H23): > 55.7 µM (inactive)
GI50 (NCI-H460): > 37.5 µM (inactive)
GI50 (NCI-H522): > 100 µM (inactive)
GI50 (NCI/ADR-RES): > 50.6 µM (inactive)
GI50 (OVCAR-3): > 100 µM (inactive)
GI50 (OVCAR-4): > 100 µM (inactive)
GI50 (OVCAR-5): > 100 µM (inactive)
GI50 (OVCAR-8): > 55.6 µM (inactive)
GI50 (PC-3): > 50.6 µM (inactive)
GI50 (RPMI-8226): > 100 µM (inactive)
GI50 (RXF 393): > 1100 µM (inactive)
GI50 (SF-268): > 100 µM (inactive)
GI50 (SF-295): 395 µM (inactive)
GI50 (SF-539): > 1100 µM (inactive)
GI50 (SK-MEL-28): > 58.1 µM (inactive)
GI50 (SK-MEL-2): > 57 µM (inactive)
GI50 (SK-MEL-5): > 100 µM (inactive)
GI50 (SK-OV-3): > 100 µM (inactive)
GI50 (SN12C): > 100 µM (inactive)
GI50 (SNB-19): > 100 µM (inactive)
GI50 (SNB-75): > 56.6 µM (inactive)
GI50 (SR): 95.9 µM (inactive)
GI50 (SW-620): > 58.1 µM (inactive)
GI50 (T47D): > 55.2 µM (inactive)
GI50 (TK-10): > 54.5 µM (inactive)
GI50 (U-251): > 54.3 µM (inactive)
GI50 (UACC-257): > 100 µM (inactive)
GI50 (UACC-62): > 100 µM (inactive)
GI50 (UO-31): > 100 µM (inactive)
